Assay results from PubChem BioAssay AID1963986 (Molecular Pharmacology Branch, DTP, NCI, 2024).

Tested on: 171881-019-R-J1-PDC tumor spheroid viability
Experiment: Anticancer human tumor 171881-019-R-J1-PDC patient-derived invasive breast carcinoma cell line growth inhibition [PI3K]
Conditions: spheroids with HUVEC and MSC; for IC50: curve of first compound; for viability, T/C: stronger effect = lower value
Method in brief: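 Viability of mixed-cell spheroids was determined after exposure to pairwise combinations, one partner being inavolisib, alpelisib, duvelisib or copanlisib. Highest tested concentration matched clinical Cmax where known and 10 microM where not, descending in half-log steps.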
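Also: spheroids exposed to compound for 7 days before viability read.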
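For viability, T/C in this document: 100% = DMSO vehicle-treated spheroids.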

Question: For C[C@@H](NC(=O)c1ncnc(N)c1Cl)c1ncc(C(=O)Nc2cc(C(F)(F)F)c(Cl)cn2)s1 + CC(Nc1ncnc2nc[nH]c12)c1cc2cccc(Cl)c2c(=O)n1-c1ccccc1, which IC50 (second compound 0.0316 µM) is on record?
Answer: > 10 µM

Question: What about the IC50 (second compound 0.1 µM) of the same molecule?
Answer: 9.46 µM

Question: And the IC50 (second compound 0.316 µM)?
Answer: 8.25 µM

Question: What about the IC50 (second compound 1 µM) of the same molecule?
Answer: 7.02 µM

Question: What about the IC50 (second compound 3.16 µM) of the same molecule?
Answer: 3.02 µM

Question: What about the IC50 (second compound 10 µM) of the same molecule?
Answer: 0.666 µM

Question: And the viability, T/C (second compound 0.0316 µM, first compound 0.0316 µM)?
Answer: 76.3%

Question: What about the viability, T/C (second compound 0.0316 µM, first compound 0.1 µM) of the same molecule?
Answer: 81.8%

Question: And the viability, T/C (second compound 0.0316 µM, first compound 0.316 µM)?
Answer: 86.3%

Question: What about the viability, T/C (second compound 0.0316 µM, first compound 1 µM) of the same molecule?
Answer: 104%

Question: And the viability, T/C (second compound 0.0316 µM, first compound 3.16 µM)?
Answer: 79%

Question: And the viability, T/C (second compound 0.0316 µM, first compound 10 µM)?
Answer: 51.3%

Question: What about the viability, T/C (second compound 0.1 µM, first compound 0.0316 µM) of the same molecule?
Answer: 92.4%

Question: What about the viability, T/C (second compound 0.1 µM, first compound 0.1 µM) of the same molecule?
Answer: 96.4%

Question: What about the viability, T/C (second compound 0.1 µM, first compound 0.316 µM) of the same molecule?
Answer: 88.2%

Question: And the viability, T/C (second compound 0.1 µM, first compound 1 µM)?
Answer: 93.4%

Question: And the viability, T/C (second compound 0.1 µM, first compound 3.16 µM)?
Answer: 76.5%

Question: And the viability, T/C (second compound 0.1 µM, first compound 10 µM)?
Answer: 48.5%

Question: And the viability, T/C (second compound 0.316 µM, first compound 0.0316 µM)?
Answer: 92.7%

Question: What about the viability, T/C (second compound 0.316 µM, first compound 0.1 µM) of the same molecule?
Answer: 78%

Question: What about the viability, T/C (second compound 0.316 µM, first compound 0.316 µM) of the same molecule?
Answer: 93.2%

Question: What about the viability, T/C (second compound 0.316 µM, first compound 1 µM) of the same molecule?
Answer: 83.2%

Question: And the viability, T/C (second compound 0.316 µM, first compound 3.16 µM)?
Answer: 79.4%

Question: What about the viability, T/C (second compound 0.316 µM, first compound 10 µM) of the same molecule?
Answer: 44.1%

Question: What about the viability, T/C (second compound 1 µM, first compound 0.0316 µM) of the same molecule?
Answer: 99.6%

Question: And the viability, T/C (second compound 1 µM, first compound 0.1 µM)?
Answer: 92.8%

Question: And the viability, T/C (second compound 1 µM, first compound 0.316 µM)?
Answer: 96.4%

Question: And the viability, T/C (second compound 1 µM, first compound 1 µM)?
Answer: 93.8%

Question: And the viability, T/C (second compound 1 µM, first compound 3.16 µM)?
Answer: 69.4%

Question: And the viability, T/C (second compound 1 µM, first compound 10 µM)?
Answer: 41.4%

Question: And the viability, T/C (second compound 3.16 µM, first compound 0.0316 µM)?
Answer: 90.1%

Question: What about the viability, T/C (second compound 3.16 µM, first compound 0.1 µM) of the same molecule?
Answer: 74.8%

Question: And the viability, T/C (second compound 3.16 µM, first compound 0.316 µM)?
Answer: 78%

Question: And the viability, T/C (second compound 3.16 µM, first compound 1 µM)?
Answer: 77.9%

Question: And the viability, T/C (second compound 3.16 µM, first compound 3.16 µM)?
Answer: 48.8%

Question: What about the viability, T/C (second compound 3.16 µM, first compound 10 µM) of the same molecule?
Answer: 30%

Question: And the viability, T/C (second compound 10 µM, first compound 0.0316 µM)?
Answer: 63.8%

Question: And the viability, T/C (second compound 10 µM, first compound 0.1 µM)?
Answer: 60.8%

Question: What about the viability, T/C (second compound 10 µM, first compound 0.316 µM) of the same molecule?
Answer: 54.6%

Question: What about the viability, T/C (second compound 10 µM, first compound 1 µM) of the same molecule?
Answer: 48.5%

Question: And the viability, T/C (second compound 10 µM, first compound 3.16 µM)?
Answer: 33.4%

Question: What about the viability, T/C (second compound 10 µM, first compound 10 µM) of the same molecule?
Answer: 21.2%
